In patent US20090062214A1, “Left-Side Glucose Lipid a Analogue” (priority 2004, published 2009):
Read-outs that look alike come from different tables or passages of the source.

Experiments:
[1] = system: mouse fatal state after GalN.LPS injection; assay: Survival test for mouse fatal state (in vivo); set-up: species or system C3H/HeN mice; conditions: tail vein
Method: (§1) A group of five C3H/HeN mice (male, 7-week old) known to be highly sensitive to lipopolysaccharide (LPS) was used. Galactosamine (GalN, 1 g/5 mL) and LPS (0.05 mg/5 mL) were each dissolved in normal saline, and they were mixed in equal amounts to prepare a GalN.LPS solution. The prepared GalN.LPS solution was injected into the tail vein in a dose of 10 mL/kg. The test compound was dissolved in a 0.1% aqueous triethylamine solution and the mixture was injected into the tail vein in a dose of 10 mL/kg substantially simultaneously with the injection of the GalN.LPS solution. […] The amount of TNFα produced in the plasma was measured using a commercially available TNFα ELISA kit. The inhibitory activity against TNFα production of the test compound was calculated as an inhibition rate against TNFα produced in response to the GalN.LPS injection. A regression line was obtained from the inhibition rates and the doses for the mice. The ID50 value (a dose at which the inhibition rate is 50%) was calculated from the regression line.
This test was performed according to the method by H. Takada (The Journal of Infectious Diseases 162, 428-434 (1990)).
Whether mice were alive or not was observed 72 hours after injection of a GalN.LPS solution, and the survival rate was calculated. The strain, age in week and gender of the mice used, the method of preparing the GalN.LPS solution and the compound solution administered, the administration route, the timing and the like were the same as in Test Example 3. A group of 8 mice was used in the test.

[2] = system: TNFα production in human whole blood; assay: Test for inhibition against TNFα production in human whole blood (in vitro); assay type: cell-based
Method: This test was performed according to the method by Hartman et al. (D. A. Hartman, S. J. Ochalski and R. P. Carlson; The effects of antiinflammatory and antiallergic drugs on cytokine release after stimulation of human whole blood by lipopolysaccharide and zymosan A: Inflamm. Res., 44, 269 (1995)).
Peripheral blood was obtained from a healthy volunteer in the presence of heparin. 360 μL of whole blood was added to a 96-well block to which 20 μL of a dimethyl sulfoxide solution of the analyte compound was previously added. 20 μL of lipopolysaccharide (LPS) (derived from E. coli 026:B6 available from SIGMA Inc.) (final concentration: 10 ng/mL) was further added thereto as a stimulant, and the mixture was sufficiently mixed and incubated under conditions of 37° C. and 5% CO2 for 6 hours. After completion of the incubation, the mixture was cooled to 4° C. to discontinue the reaction, and the mixture was immediately centrifuged at 2000 rpm for 15 minutes. The supernatant plasma was then separated and collected. The TNFα produced and released in the plasma was measured by an enzyme-linked immunosorbent assay (ELISA) kit (made by Biosource International). The inhibition rate was determined from the amount of cytokine produced in the presence and in the absence of the analyte compound. IC50 values were calculated from the average of the inhibition rates by the least-square method. For comparison, an IC50 value was calculated in the same manner as in the case of the test compound, using a compound described in U.S. Pat. No. 5,935,938 as a comparative compound. The structural formula of the comparative compound is shown.
This test was performed in the same manner as in Test Example 1. The same comparative compound as in Test Example 1 was used.

TNFα production in mice = assay: Test for inhibitory activity against TNFα production in mice (in vivo); set-up: species or system C3H/HeN mice; conditions: GalN.LPS, tail vein injection, plasma TNFα after an hour
Method: This test was performed according to the method by Y. Endo et al. (British Journal of Pharmacology 128, 5-12 (1999)).
as §1

[3] = human whole blood, LPS 10 ng/mL, 6 hours, ELISA, Test Example 1, Table 1, read-out: IC50 (nM), inhibition of TNFα production

| Structure (SMILES) | Survival rate (%) of mice after 72 hours ([1]; dose 0.3 mg/kg, Table 7) [%] | Survival rate (%) of mice after 72 hours ([1]; dose 0.3 mg/kg, Table 8) [%] | Survival rate (%) of mice after 72 hours ([1]; dose 0.3 mg/kg, Table 9) [%] | Survival rate (%) of mice after 72 hours ([1]; dose 1 mg/kg, Table 7) [%] | Survival rate (%) of mice after 72 hours ([1]; dose 1 mg/kg, Table 8) [%] | Survival rate (%) of mice after 72 hours ([1]; dose 1 mg/kg, Table 9) [%] | Survival rate (%) of mice after 72 hours ([1]; dose 3 mg/kg, Table 7) [%] | Survival rate (%) of mice after 72 hours ([1]; dose 3 mg/kg, Table 8) [%] | Survival rate (%) of mice after 72 hours ([1]; dose 3 mg/kg, Table 9) [%] | ID50 (mg/kg), inhibition of TNFα production (TNFα production in mice; Table 4) [mg/kg] | ID50 (mg/kg), inhibition of TNFα production (TNFα production in mice; Table 5) [mg/kg] | ID50 (mg/kg), inhibition of TNFα production (TNFα production in mice; Table 6) [mg/kg] | IC50 [2, 3] [nM] | also measured |
| --- | --- | --- | --- | --- | --- | --- | --- | --- | --- | --- | --- | --- | --- | --- |
| CCCCCC/C=C\CCCCCCCCCC(=O)N[C@H]1[C@H](OC[C@H]2O[C@H](OP(=O)(O)O)[C@H](NC(=O)CC(=O)CCCCCCCCCCC)[C@@H](OCCCCCCCCCC)[C@@H]2O)O[C@H](COC)[C@@H](OP(=O)(O)O)[C@@H]1OCC[C@@H](CCCCCCC)OC [Comparative Compound, reference compound] | 25 | 50 | 13 | 63 | 75 | 0 | 100 | 50 | 25 | 2.12 | 3.28 | 1.82 | – | IC50 ([2]; Homo sapiens, 6 h, read-out: IC50 (nM), inhibition of TNFα production, human whole blood, LPS 10 ng/mL, 6 hours, ELISA, Test Example 1, Table 1): 0.97 nM; IC50 ([2]; Homo sapiens, 6 h, read-out: IC50 (nM), inhibition of TNFα production, human whole blood, LPS 10 ng/mL, 6 hours, ELISA, Test Example 2, Table 2): 2.94 nM; IC50 ([2]; Homo sapiens, 6 h, read-out: IC50 (nM), inhibition of TNFα production, human whole blood, LPS 10 ng/mL, 6 hours, ELISA, Test Example 2, Table 3): 8.24 nM |
| CCCCCC/C=C\CCCCCCCCCC(=O)O[C@H]1[C@H](OC[C@H]2O[C@H](OP(=O)(O)O)[C@H](NC(=O)CC(=O)CCCCCCCCCCC)[C@@H](OCCCCCCCCCC)[C@@H]2O)O[C@H](COC)[C@@H](OP(=O)(O)O)[C@@H]1OCC[C@@H](CCCCCCC)OC [Compound 1, Phosphono 3-O-decyl-2-deoxy-6-O-{3-O-[(R)-3-methoxydecyl]-6-O-methyl-2-O-[(Z)-11-octadecenoyl]-4-O-phosphono-β-D-glucopyranosyl}-2-(3-oxotetradecanoylamino)-α-D-glucopyranoside] | – | – | – | – | – | – | – | – | – | 0.45 | – | – | 0.49 | – |
| CCCCCC/C=C\CCCCCCCCCCO[C@H]1[C@H](OC[C@H]2O[C@H](OP(=O)(O)O)[C@H](NC(=O)CC(=O)CCCCCCCCCCC)[C@@H](OCCCCCCCCCC)[C@@H]2O)O[C@H](COC)[C@@H](OP(=O)(O)O)[C@@H]1OCC[C@@H](CCCCCCC)OC [Compound 2, Phosphono 3-O-decyl-2-deoxy-6-O-{3-O-[(R)-3-methoxydecyl]-6-O-methyl-2-O-[(Z)-11-octadecenyl]-4-O-phosphono-β-D-glucopyranosyl}-2-(3-oxotetradecanoylamino)-α-D-glucopyranoside] | 38 | – | – | 75 | – | – | 100 | – | – | <0.2 | – | – | 0.51 | – |
| CCCCCC/C=C\CCCCCCCCCC(=O)O[C@H]1[C@H](OC[C@H]2O[C@H](OP(=O)(O)O)[C@H](NC(=O)CC(=O)CCCCCCCCCCC)[C@@H](OCCCCCCCCCC)[C@@H]2O)O[C@H](CO)[C@@H](OP(=O)(O)O)[C@@H]1OCC[C@@H](CCCCCCC)OC [Compound 3, Phosphono 3-O-decyl-2-deoxy-6-O-{3-O-[(R)-3-methoxydecyl]-2-O-[(Z)-11-octadecenoyl]-4-O-phosphono-β-D-glucopyranosyl}-2-(3-oxotetradecanoylamino)-α-D-glucopyranoside] | 50 | – | – | 100 | – | – | 100 | – | – | 0.96 | – | – | 0.65 | – |
| CCCCCC/C=C\CCCCCCCCCC(=O)O[C@H]1[C@H](OC[C@H]2O[C@H](OP(=O)(O)O)[C@H](OC(=O)CC(=O)CCCCCCCCCCC)[C@@H](OCCCCCCCCCC)[C@@H]2O)O[C@H](COC)[C@@H](OP(=O)(O)O)[C@@H]1OCC[C@@H](CCCCCCC)OC [Compound 8, phosphono 3-O-decyl-6-O-{3-O-[(R)-3-methoxydecyl]-6-O-methyl-2-O-[(Z)-11-octadecenoyl]-4-O-phosphono-β-D-glucopyranosyl}-2-O-(3-oxotetradecanoyl)-α-D-glucopyranoside] | – | 50 | – | – | 75 | – | – | 100 | – | – | 0.55 | – | – | IC50 ([2]; human whole blood, LPS 10 ng/mL, 6 hours, ELISA, Test Example 2, Table 2, read-out: IC50 (nM), inhibition of TNFα production): 0.06 nM |
| CCCCCC/C=C\CCCCCCCCCC(=O)O[C@H]1[C@H](OC[C@H]2O[C@H](OP(=O)(O)O)[C@H](OC(=O)CC(=O)CCCCCCCCCCC)[C@@H](OCCCCCCCCCC)[C@@H]2O)O[C@H](CO)[C@@H](OP(=O)(O)O)[C@@H]1OCC[C@@H](CCCCCCC)OC [Compound 9, Phosphono 3-O-decyl-6-O-{3-O-[(R)-3-methoxydecyl]-2-O-[(Z)-11-octadecenoyl]-4-O-phosphono-β-D-glucopyranosyl}-2-O-(3-oxotetradecanoyl)-α-D-glucopyranoside] | – | – | 13 | – | – | 38 | – | – | 100 | – | – | <0.2 | – | IC50 ([2]; human whole blood, LPS 10 ng/mL, 6 hours, ELISA, Test Example 2, Table 3, read-out: IC50 (nM), inhibition of TNFα production): 0.83 nM |
